What was measured:
human BTK = human BTK (Homo sapiens (Human), UniProt Q06187); experiment: BTK LANTHASCREEN Eu Kinase Binding Assay; conditions: IC50 value ± standard deviation; full-length His-labeled BTK, kinase tracer 236; read-out: hBTK Rel IC50
human EGFR = human EGFR (Homo sapiens (Human), UniProt P00533); experiment: EGFR LANTHASCREEN Eu Kinase Binding Assay; conditions: IC50 value ± standard deviation; truncated GST-labeled EGFR, kinase tracer 199; read-out: hEGFR Rel IC50
[1] = tested on: activated B cells in human whole blood (CD69); experiment: Human Whole Blood CD69 in vitro assay (B cell activation, flow cytometry); type: cell-based; conditions: IC50 value ± standard deviation, anti-human-IgD-Dextran stimulation, read-out: HWB CD69 Rel IC50
Rat Oral Bioavailability = type: in vivo, Sprague-Dawley rats; conditions: Sprague-Dawley, plasma, PO 3 mg/kg vs IV 1 mg/kg, read-out: Rat Oral Bioavailability (% F)
Protocol: The test compound is administered to Sprague-Dawley rats intravenously (IV) at 1 mg/kg (using vehicles of either: 20% CAPTISOL® in 25 mM sodium phosphate buffer, pH2 quantum satis; or 25% DMA, 15% EtOH, 10% propylene glycol, 25% 2-pyrrolidone, and 25% purified water) and orally (PO) at 3 mg/kg (using a vehicle of 1% hydroxyethyl cellulose, 0.25% polysorbate 80, 0.05% Antifoam 1510-US, and purified water quantum satis). Serial blood samples are collected at 0.08, 0.25, 0.5, 1, 2, 4, 8, and 12 h post dose for IV bolus and at 0.25, 0.5, 1, 2, 4, 8, and 12 h post dose after oral administration. After treatment with an EDTA […], plasma is obtained by centrifugation and stored at −70° C. until analysis by LC-MS/MS. Test article concentration is determined in plasma and uploaded into the Watson LIMS™ system where noncompartmental analysis is used to calculate Area Under the Curve (AUC) for both IV and PO arms. Bioavailability (% F) is calculated via the following equation, %F=(AUCPO×DoseIV)/(AUCIV×DosePO)×100. Table 3 indicates the rat oral bioavailability of select BTK inhibitors.

[2] = tested on: type II collagen-induced arthritis (CIA) rat model; experiment: Rat In Vivo Collagen-Induced Arthritis Assay; parameters: species or system Female Lewis rats; conditions: for % inhibition paw thickness AUC vs Vehicle control / % paw thickness AUC (mm) ± SE: CIA rats, 9 days
Protocol: A type II collagen-induced arthritis (CIA) rat model may be used to evaluate the therapeutic effects of compounds. Female Lewis rats (Charles River Charles River Laboratories, Inc.) with a mean body weight of 155-175 g are used for the study. Animals are fed with standard rodent chow and provided water ad libitum. Immunization emulsion is prepared with 2 mg/ml bovine collagen-II mixed with an equal volume of incomplete Freund's adjuvant (IFA). Rats are immunized intradermally with 0.4 ml collagen emulsion in two sites each on the lower lumbar region, above the base of the tail on day 1, and again on day 8. Animals are randomized based on the paw thickness and body weight on day 11 into study groups, with 8 rats in each group. Compounds are prepared in 1% HEC/0.25% P80/0.05% anti-foam in purified water and dosed daily via oral gavage for 9 days. Paw thickness is quantitated daily using a caliper measurement in the right ankle site.
The inhibition by the compounds of the invention is evaluated using Dunnett's post test for multiple comparisons for the CIA rat groups treated with the indicated Example compound, at the indicated dose, as compared to CIA rat groups treated with vehicle, and differences of P<0.05 are considered to be significant. […] Mean sum paw thickness is decreased compared to vehicle treated CIA rats. Mean percent paw thickness inhibition during the treatment period illustrates dose-related improvement.
Table 4 indicates the in vivo activity for exemplified BTK inhibitors in the collagen-induced arthritis model (SE=standard error).

normal rats = experiment: In vivo administration to normal rats for four days (tolerability/toxicity)
Text: Compounds of the invention, for instance Example 1, show an advantageous combination of pharmacological properties, such as potency, high oral in vivo availabilty, in vivo efficacy, and a favorable toxicity profile in preclinical testing.

human BTK, sequence (Q06187 whole entry, the tested form may be a part): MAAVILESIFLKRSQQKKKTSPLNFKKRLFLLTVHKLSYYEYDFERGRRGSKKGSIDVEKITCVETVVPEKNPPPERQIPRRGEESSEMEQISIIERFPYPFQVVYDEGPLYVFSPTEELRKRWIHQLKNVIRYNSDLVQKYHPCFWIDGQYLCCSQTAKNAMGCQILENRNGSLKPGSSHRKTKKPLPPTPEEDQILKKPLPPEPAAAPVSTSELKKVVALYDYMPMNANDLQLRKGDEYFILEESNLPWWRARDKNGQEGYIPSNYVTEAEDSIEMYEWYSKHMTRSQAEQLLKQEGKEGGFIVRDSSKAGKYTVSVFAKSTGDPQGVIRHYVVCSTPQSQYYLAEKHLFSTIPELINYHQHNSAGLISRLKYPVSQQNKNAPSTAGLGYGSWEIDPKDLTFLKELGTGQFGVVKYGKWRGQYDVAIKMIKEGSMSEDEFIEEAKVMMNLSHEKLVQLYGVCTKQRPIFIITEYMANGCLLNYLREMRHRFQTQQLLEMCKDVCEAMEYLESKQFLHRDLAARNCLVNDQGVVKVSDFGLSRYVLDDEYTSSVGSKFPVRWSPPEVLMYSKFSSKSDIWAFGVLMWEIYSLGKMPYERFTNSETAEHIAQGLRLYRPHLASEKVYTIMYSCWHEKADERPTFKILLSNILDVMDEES
human EGFR, sequence (P00533 668-1210): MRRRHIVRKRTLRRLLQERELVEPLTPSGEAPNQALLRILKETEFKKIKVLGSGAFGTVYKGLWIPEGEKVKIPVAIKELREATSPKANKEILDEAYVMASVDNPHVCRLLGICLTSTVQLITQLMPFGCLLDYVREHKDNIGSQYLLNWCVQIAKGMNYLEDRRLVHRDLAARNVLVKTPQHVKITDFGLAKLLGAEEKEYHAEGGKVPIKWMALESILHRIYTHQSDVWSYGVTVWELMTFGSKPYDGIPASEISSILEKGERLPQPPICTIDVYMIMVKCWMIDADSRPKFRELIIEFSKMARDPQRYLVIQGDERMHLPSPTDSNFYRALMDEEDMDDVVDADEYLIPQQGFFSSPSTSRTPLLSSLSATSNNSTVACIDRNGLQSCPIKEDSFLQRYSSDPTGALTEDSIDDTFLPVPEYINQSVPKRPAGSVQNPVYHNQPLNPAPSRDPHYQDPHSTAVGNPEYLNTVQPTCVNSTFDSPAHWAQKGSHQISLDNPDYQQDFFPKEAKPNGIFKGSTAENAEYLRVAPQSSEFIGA

C=CC(=O)N1CCC(Nc2cncc(-c3cnc(Oc4cccc(Cl)c4)nc3)c2)CC1 [Example 1, 1-[4-[[5-[2-(3-chlorophenoxy)pyrimidin-5-yl]-3-pyridyl]amino]-1-piperidyl]prop-2-en-1-one]
IC50 (human BTK): 25.3 ± 5.42 nM
IC50 (human EGFR): 470 ± 93.6 nM
IC50 [1]: 393 ± 128 nM
bioavailability (Rat Oral Bioavailability): 74%
% inhibition paw thickness AUC vs Vehicle control ([2]; 0.5 mg/kg/d oral): 23%
% paw thickness AUC (mm) ± SE ([2]; 0.5 mg/kg/d oral): 73.9 ± 2.5 mm
% inhibition paw thickness AUC vs Vehicle control ([2]; 1 mg/kg/d oral): 47%
% paw thickness AUC (mm) ± SE ([2]; 1 mg/kg/d oral): 69.6 ± 2.0 mm
% inhibition paw thickness AUC vs Vehicle control ([2]; 3 mg/kg/d oral): 81%
% paw thickness AUC (mm) ± SE ([2]; 3 mg/kg/d oral): 63.4 ± 1.3 mm
arthritis severity in CIA rats ([2]; compared to vehicle treated CIA rats): dose-related reduction
tolerability when administered in vivo (normal rats): generally well tolerated
toxicity in vivo (normal rats): advantageous lack of toxicity
